This note sets out measurements from patent publication US12691151B2, “Methods and compositions for improving oncolytic virus infection for nonpermissive cancers” (Arizona Board of Regents on behalf of Arizona State …, priority 2019, dated 2026).

SMILES strings stand for the structures. Entries after “also recorded” stand apart in the source; their conditions may differ.

In this experiment the test system is HT29 cells. Type of experiment: cell-based, human.

Consider `CCC(=C/[C@H](C)C/C=C/C(C)=C/[C@@H](C)C(=O)[C@@H](C)[C@H](O)[C@@H](C)C/C(C)=C/C(=O)O)/C=C/[C@@H]1OC(=O)C=C[C@@H]1C` [Leptomycin B], for which the “cell killing ability of MYXV” value is “further enhanced the cell killing ability of MYXV” and the “cell viability (ATP), Leptomycin B pretreatment plus MYXV” value is given as “further reduced the viability; also recorded: reduced cell viability”. Also, the “cell viability (ATP)” value (64 h) was “sensitive to Leptomycin B treatment alone”.
